According to patent publication US20200239530A1, “COMPOUNDS AND METHODS OF MODULATING PROTEIN DEGRADATION” (Vividion Therapeutics, Inc., priority 2017, published 2020):
Read-outs that look alike come from different tables or passages of the source.

Columns and labels:
Experiment in all cases: Cysteine liganding, probe competition
Type in all cases: binding
UniProt A0AVI4 = molecular target: T1, UniProt A0AVI4 (Homo sapiens, UniProt A0AVI4)
T1 construct: 200 μL of lysate containing 5 mg/ml proteome was treated with 2 μL of 100× compound stock; endogenous in cells
T1 sequence (A0AVI4 1-362): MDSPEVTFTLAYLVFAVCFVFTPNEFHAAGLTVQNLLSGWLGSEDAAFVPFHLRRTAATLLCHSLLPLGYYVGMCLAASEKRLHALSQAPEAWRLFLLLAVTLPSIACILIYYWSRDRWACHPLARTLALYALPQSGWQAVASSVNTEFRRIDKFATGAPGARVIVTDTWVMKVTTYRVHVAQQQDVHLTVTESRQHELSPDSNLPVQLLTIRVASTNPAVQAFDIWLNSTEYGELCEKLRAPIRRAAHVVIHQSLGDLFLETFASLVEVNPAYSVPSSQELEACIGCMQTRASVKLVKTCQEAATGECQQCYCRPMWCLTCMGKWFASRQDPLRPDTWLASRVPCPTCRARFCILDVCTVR
Source text: (§1) The following 96-well sample prep protocol was used for sample preparation.

UniProt Q9BY78 = molecular target: T2, UniProt Q9BY78 (Homo sapiens, UniProt Q9BY78); settings: for inhibition at 500 µM: read-out: percent_inhibition
T2 construct: 200 μL of lysate containing 5 mg/ml proteome was treated with 2 μL of 100× compound stock; endogenous in cells
T2 sequence (Q9BY78 1-433): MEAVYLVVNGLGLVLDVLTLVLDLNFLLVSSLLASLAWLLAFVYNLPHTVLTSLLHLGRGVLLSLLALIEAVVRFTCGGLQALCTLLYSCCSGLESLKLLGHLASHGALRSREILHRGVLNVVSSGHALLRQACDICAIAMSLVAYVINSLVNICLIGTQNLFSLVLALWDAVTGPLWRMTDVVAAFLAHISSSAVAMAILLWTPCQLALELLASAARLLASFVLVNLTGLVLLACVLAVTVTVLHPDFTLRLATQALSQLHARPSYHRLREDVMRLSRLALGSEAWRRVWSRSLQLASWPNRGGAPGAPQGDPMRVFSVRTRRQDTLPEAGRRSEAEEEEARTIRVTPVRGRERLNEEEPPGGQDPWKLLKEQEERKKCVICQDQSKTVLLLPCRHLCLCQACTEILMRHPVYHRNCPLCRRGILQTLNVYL
Source text: as §1

UniProt Q6ZN04 = molecular target: T3, UniProt Q6ZN04 (Homo sapiens, UniProt Q6ZN04); settings: for inhibition at 500 µM: read-out: percent inhibition
T3 construct: Cells were resuspended in cold PBS on ice and sonicated with a probe sonicator to achieve lysis; endogenous in cells
T3 sequence (Q6ZN04 1-569): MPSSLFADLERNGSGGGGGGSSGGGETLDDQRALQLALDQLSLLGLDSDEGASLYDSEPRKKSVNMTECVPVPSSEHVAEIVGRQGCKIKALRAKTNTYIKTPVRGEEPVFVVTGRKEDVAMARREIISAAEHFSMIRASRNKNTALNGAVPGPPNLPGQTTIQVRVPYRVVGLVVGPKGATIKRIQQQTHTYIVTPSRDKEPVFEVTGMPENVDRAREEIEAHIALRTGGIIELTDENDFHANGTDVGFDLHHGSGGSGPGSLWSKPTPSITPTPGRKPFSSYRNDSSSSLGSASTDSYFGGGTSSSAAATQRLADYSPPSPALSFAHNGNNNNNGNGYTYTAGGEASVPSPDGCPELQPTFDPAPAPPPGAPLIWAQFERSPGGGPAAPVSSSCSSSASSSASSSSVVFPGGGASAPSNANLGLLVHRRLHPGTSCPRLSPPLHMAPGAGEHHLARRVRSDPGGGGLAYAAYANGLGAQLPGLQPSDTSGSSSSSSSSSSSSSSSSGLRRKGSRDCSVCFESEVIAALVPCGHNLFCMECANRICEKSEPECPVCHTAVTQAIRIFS
Source text: as §1

UniProt Q5W0B1 = molecular target: T4, UniProt Q5W0B1 (Homo sapiens, UniProt Q5W0B1)
T4 construct: 200 μL of lysate containing 5 mg/ml proteome was treated with 2 μL of 100× compound stock; endogenous in cells
T4 sequence (Q5W0B1 1-726): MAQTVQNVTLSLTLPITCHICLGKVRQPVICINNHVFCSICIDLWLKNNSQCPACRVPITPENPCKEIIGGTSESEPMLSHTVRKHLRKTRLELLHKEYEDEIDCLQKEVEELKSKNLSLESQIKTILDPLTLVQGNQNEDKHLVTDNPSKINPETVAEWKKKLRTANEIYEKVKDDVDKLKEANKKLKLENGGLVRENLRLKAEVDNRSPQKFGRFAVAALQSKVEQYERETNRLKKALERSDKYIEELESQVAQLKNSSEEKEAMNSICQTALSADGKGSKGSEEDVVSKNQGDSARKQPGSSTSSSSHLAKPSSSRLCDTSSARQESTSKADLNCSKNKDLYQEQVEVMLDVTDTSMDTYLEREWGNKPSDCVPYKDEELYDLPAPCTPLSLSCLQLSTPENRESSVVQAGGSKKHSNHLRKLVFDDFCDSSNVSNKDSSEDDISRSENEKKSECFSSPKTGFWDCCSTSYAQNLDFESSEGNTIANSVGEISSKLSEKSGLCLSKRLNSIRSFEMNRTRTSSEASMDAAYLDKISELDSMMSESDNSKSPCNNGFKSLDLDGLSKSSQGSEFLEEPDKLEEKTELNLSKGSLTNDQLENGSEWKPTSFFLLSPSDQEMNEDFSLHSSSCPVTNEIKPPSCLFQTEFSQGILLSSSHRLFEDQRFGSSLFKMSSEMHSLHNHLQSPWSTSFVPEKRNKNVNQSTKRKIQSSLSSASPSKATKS
Source text: as §1

UniProt Q6ZTA4 = molecular target: T5, UniProt Q6ZTA4 (Homo sapiens, UniProt Q6ZTA4)
T5 construct: 200 μL of lysate containing 5 mg/ml proteome was treated with 2 μL of 100× compound stock; endogenous in cells
Source text: as §1

[1] = 500 uM, read-out: percent_inhibition

T5 sequence (Q6ZTA4 whole entry, change not shown): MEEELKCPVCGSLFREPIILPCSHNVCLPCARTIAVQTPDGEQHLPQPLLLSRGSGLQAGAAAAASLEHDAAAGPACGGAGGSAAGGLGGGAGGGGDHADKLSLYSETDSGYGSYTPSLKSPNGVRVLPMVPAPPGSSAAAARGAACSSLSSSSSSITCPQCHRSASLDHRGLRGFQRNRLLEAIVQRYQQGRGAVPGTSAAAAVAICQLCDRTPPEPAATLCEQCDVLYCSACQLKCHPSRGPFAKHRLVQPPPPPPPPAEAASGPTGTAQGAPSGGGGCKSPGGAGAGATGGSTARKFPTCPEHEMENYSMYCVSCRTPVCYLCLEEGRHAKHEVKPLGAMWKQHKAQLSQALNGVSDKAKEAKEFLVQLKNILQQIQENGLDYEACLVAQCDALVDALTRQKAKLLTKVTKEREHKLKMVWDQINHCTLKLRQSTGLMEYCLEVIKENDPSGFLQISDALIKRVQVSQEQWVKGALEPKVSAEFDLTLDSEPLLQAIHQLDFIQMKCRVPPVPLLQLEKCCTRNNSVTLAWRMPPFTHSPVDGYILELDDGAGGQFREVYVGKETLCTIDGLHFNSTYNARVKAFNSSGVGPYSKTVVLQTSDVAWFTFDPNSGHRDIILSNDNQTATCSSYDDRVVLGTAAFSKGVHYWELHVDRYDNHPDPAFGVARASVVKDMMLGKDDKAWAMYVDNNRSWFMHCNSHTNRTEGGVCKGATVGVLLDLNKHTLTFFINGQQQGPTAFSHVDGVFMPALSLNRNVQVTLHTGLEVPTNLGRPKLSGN

| Compound | inhibition at 100 µM (UniProt A0AVI4; read-out: percent_inhibition) [%] | inhibition at 500 µM (UniProt A0AVI4; [1]) [%] | inhibition at 500 µM (UniProt Q9BY78) [%] | inhibition at 500 µM (UniProt Q6ZN04) [%] | inhibition at 100 µM (UniProt Q5W0B1; 100 uM, read-out: percent_inhibition) [%] | inhibition at 500 µM (UniProt Q5W0B1; [1]) [%] | inhibition at 500 µM (UniProt Q6ZTA4; read-out: KB02_500 uM_percent_inhibition) [%] | inhibition at 500 µM (UniProt Q6ZTA4; read-out: KB05_500 uM_percent_inhibition) [%] | percent_inhibition (UniProt A0AVI4; 500 uM) [%] | percent_inhibition (UniProt Q9BY78; 500 uM) [%] | percent inhibition (UniProt Q6ZN04; 500 uM) [%] | percent_inhibition (UniProt Q5W0B1; 500 uM) [%] | KB03_500 uM_percent_inhibition (UniProt Q6ZTA4; 500 uM) [%] |
| --- | --- | --- | --- | --- | --- | --- | --- | --- | --- | --- | --- | --- | --- |
| COc1ccc2c(c1)CCCN2C(=O)CCl [KB02] | 14 | 44 | 31 | 51 | 17 | 54 | 44 | – | – | – | – | – | – |
| C=CC(=O)N(c1ccccc1)c1ccc(Br)cc1 [KB05] | 15 | – | 30 | 51 | – | 48 | – | 37 | – | – | – | – | – |
| O=C(CCl)Nc1cc(C(F)(F)F)cc(C(F)(F)F)c1 [KBO3] | – | – | – | – | – | – | – | – | 58 | 54 | 28 | 28 | 6 |
